Tested on: PC3 tumor-bearing mice
Assay: Ex vivo biodistribution of 68Ga-labeled radiotracers in PC3 xenografts
Procedure: U87MG and PC3 tumor-bearing mice: Female athymic BALB/c (6 weeks/16–20 g) and male athymic BALB/c nude mice (6 weeks/20–25 g) were implanted with U87MG or PC3 cells (5 × 10^6/100 µL PBS) into their right shoulder, respectively. The animals were used for biodistribution and PET/SPECT/CT imaging studies (Animal License No: BE98/2021).
Ten pmol (0.08–0.1 MBq) of the radiotracers in 100 µL of NaCl 0.9% were injected intravenously into the tail vein of U87MG and PC3 tumor-bearing mice and biodistribution studies were conducted at 1, 2, and 3 h after injection.
Saturation Binding Studies […]
The radioactivity of the culture medium, the receptor bound , the internalized and the externalized fractions were measured in a γ -counter. The externalized fraction of radioactivity was ex-pressed as the percentage of the total internalized amount.
[68Ga]Ga -DOTA.SA.FAPi and [ 68Ga]Ga -DOTAGA.(SA.FAPi) 2
Ten pmol ( 0.08 –0.1 MBq) of [68Ga]Ga -monomer and [ 68Ga]Ga -dimer in 100 µ L of NaCl 0.9% were injected intravenously into the tail vein of U87MG or PC3 tumor bearing mice . The PC3 tumor-bearing mice were used between the 15th and 17th day after the xenograft implantation and the size was 281 ± 75 mm3. The U87MG tumor-bearing mice were used between the 7th and 9th day after the implantation and the size was 210 ± 34 mm3. Animals were terminally anesthetized by intraperitoneal injection of an overdose of pento-barbital natrium (150 mg/kg; Streuli Pharma SA, Uznach, Switzerland) at 1, 2 and 3 h after injection of the radiotracers. The organs of interest were dissected and weighed, and the radioactivity in the tissue samples […]
was counted in a γ-counter. Biodistribution data are given as the percent of injected activity per gram of tissue (% IA/g) and as means ± SD (n = 4). […]
each radiotracer along with 20 nmol of UAMC1110 (total injected volume: 100 µL) and biodistribution stud-ies were performed 2 h after injection.
[177Lu]Lu-DOTA.SA.FAPi and [177Lu]Lu-DOTAGA.(SA.FAPi)2
Ten pmol (0.06-0.08 MBq) of [177Lu]Lu-monomer and [177Lu]Lu-dimer in 100 µL of NaCl 0.9% were injected intravenously into the tail vein of PC3 tumor-bearing mice. The PC3 tumor-bearing mice were used between the 15th and 17th day after the xenograft implantation and its size was 281 ± 75 mm3. Animals were terminally anesthetized by intraperitoneal injection of an overdose of pentobarbital natrium (150 mg/kg; Streuli Pharma SA, Uznach, Switzerland) 1, 4, 24 and 48 h after the injection of [177Lu]Lu-DOTA.SA.FAPi and at 4, 24, 48, 72 and 96 h after the injection of [177Lu]Lu-DOTAGA.(SA.FAPi)2. The organs of interest were dissected and weighed, and the radioactivity in the tissue samples was counted in a γ-counter. The biodistribution data are given as the percent of injected activity per gram of tissue (% IA/g) and as means ± SD (n = 4). […]
blood pools or if they were necrotic. Both tumor types were “clean” without extended vascularization; there […]
Small Animal Imaging Studies
PET images were obtained after injection of 200 pmol of [68Ga]Ga-DOTA.SA.FAPi and [68Ga]Ga-DOT-AGA.(SA.FAPi)2 (1.0–1.6 MBq/100 μL) into U87MG or PC3 xenografts at 1, 2 and 3 h after injection. Static imaging was acquired for a time period between 10 and 45 min at 1, 2 and 3 h post injection, respectively.
To visualize the extent of FAP-specific tumor uptake, PET/CT blocking studies were performed as described above, and static scans were obtained for 30 min 2 h after the injection of the radiotracer along with the blocking agent (20 nmol).
PET images were corrected for gallium-68 decay and reconstructed with 12 iterations of the maximum a posteriori (MAP) algorithm using a voxel size of 0.25 mm. No correction was applied for attenuation. In addition, a point spread function iterative deconvolution was applied. The images were normalized, filtered using a Gaussian 3D algorithm with a 1.3 mm isotropic kernel and generated using PMOD software. The CT was carried out using step and shoot mode and employed 45 kVp and 400 uA as settings. The images […]

[1] = 2 h blocking (20 nmol UAMC1110)

Biodistribution Blood (1 h): 8.5± 0.6 % IA/g
Biodistribution Bone (1 h): 3.4±0.4 % IA/g
Biodistribution Heart (1 h): 4.6±1.6 % IA/g
Biodistribution Intestine (1 h): 2.7±0.2 % IA/g
Biodistribution Kidney (1 h): 3.6±0.3 % IA/g
Biodistribution Liver (1 h): 2.4±0.1 % IA/g
Biodistribution Lung (1 h): 3.4±0.6 % IA/g
Biodistribution Muscle (1 h): 2.5±0.2 % IA/g
Biodistribution PC3-Tumor (1 h): 6.1±0.7 % IA/g
Biodistribution Pancreas (1 h): 8.9±1.0 % IA/g
Biodistribution Spleen (1 h): 2.5±0.1 % IA/g
Biodistribution Stomach (1 h): 2.0±0.4 % IA/g
Tumor/Blood ratio (1 h): 0.7±0.03
Tumor/Liver ratio (1 h): 1.8±0.1
Tumor/Muscle ratio (1 h): 2.4±0.4
Tumor/Pancreas ratio (1 h): 0.7±0.1
Biodistribution Blood (2 h): 4.8±0.3 % IA/g
Biodistribution Bone (2 h): 2.0±0.2 % IA/g
Biodistribution Heart (2 h): 1.9±0.1 % IA/g
Biodistribution Intestine (2 h): 2.6±0.2 % IA/g
Biodistribution Kidney (2 h): 2.7±0.2 % IA/g
Biodistribution Liver (2 h): 2.7±0.2 % IA/g
Biodistribution Lung (2 h): 2.2±0.1 % IA/g
Biodistribution Muscle (2 h): 2.6±0.3 % IA/g
Biodistribution PC3-Tumor (2 h): 5.4±2.4 % IA/g
Biodistribution Pancreas (2 h): 6.4±0.5 % IA/g
Biodistribution Spleen (2 h): 1.7±0.1 % IA/g
Biodistribution Stomach (2 h): 1.4±0.1 % IA/g
Tumor/Blood ratio (2 h): 1.2±0.6
Tumor/Liver ratio (2 h): 2.1±0.1
Tumor/Muscle ratio (2 h): 2.1±1.2
Tumor/Pancreas ratio (2 h): 0.9±0.4
Biodistribution Blood [1]: 0.3±0.1 % IA/g
Biodistribution Bone [1]: 0.2±0.1 % IA/g
Biodistribution Heart [1]: 0.1±0.05 % IA/g
Biodistribution Intestine [1]: 0.4± 0.1 % IA/g
Biodistribution Kidney [1]: 1.2±0.2 % IA/g
Biodistribution Liver [1]: 0.2±0.04 % IA/g
Biodistribution Lung [1]: 0.3±0.1 % IA/g
Biodistribution Muscle [1]: 0.1±0.06 % IA/g
Biodistribution PC3-Tumor [1]: 0.5±0.1 % IA/g
Biodistribution Pancreas [1]: 0.1±0.06 % IA/g
Biodistribution Spleen [1]: 0.1± 0.04 % IA/g
Biodistribution Stomach [1]: 0.1±0.07 % IA/g
Biodistribution Blood (3 h): 4.7±0.4 % IA/g
Biodistribution Bone (3 h): 3.4±2.4 % IA/g
Biodistribution Heart (3 h): 2.0±0.1 % IA/g
Biodistribution Intestine (3 h): 2.4±0.4 % IA/g
Biodistribution Kidney (3 h): 2.4±0.4 % IA/g
Biodistribution Liver (3 h): 2.6±0.4 % IA/g
Biodistribution Lung (3 h): 2.1±0.3 % IA/g
Biodistribution Muscle (3 h): 2.3±0.2 % IA/g
Biodistribution PC3-Tumor (3 h): 5.0±0.2 % IA/g
Biodistribution Pancreas (3 h): 5.1±1.1 % IA/g
Biodistribution Spleen (3 h): 1.8±0.5 % IA/g
Biodistribution Stomach (3 h): 1.6±0.1 % IA/g
Tumor/Blood ratio (3 h): 1.8±0.2
Tumor/Liver ratio (3 h): 3.3±0.5
Tumor/Muscle ratio (3 h): 3.8±0.4
Tumor/Pancreas ratio (3 h): 1.7±0.4
Structure (SMILES): N#C[C@@H]1CC(F)(F)CN1C(=O)CNC(=O)c1ccnc2ccc(OCCCCNc3c(NCCNC(=O)CN4CCN(CC(=O)[O-])CCN(CC(=O)[O-])CCN(CC(=O)[O-])CC4)c(=O)c3=O)cc12.[68Ga+3] [[^68Ga]Ga-DOTA.SA.FAPi]

From article PMC11243320, “Tailoring Fibroblast-Activation Protein Targeting for Theranostics: A Comparative Preclinical Evaluation of the ^68Ga- and ^177Lu-Labeled Monomeric and Dimeric Fibroblast-Activation Protein Inhibitors DOTA.SA.FAPi and DOTAGA.(SA.FAPi)2” (Molecules, 2024)
